Results: BindingDB's records for doi:10.1021/jm9708341 (University of Leipzig, 1998)

Biological target: T1, Neutrophil elastase (Homo sapiens, UniProt P08246)
T1 sequence (P08246 whole entry): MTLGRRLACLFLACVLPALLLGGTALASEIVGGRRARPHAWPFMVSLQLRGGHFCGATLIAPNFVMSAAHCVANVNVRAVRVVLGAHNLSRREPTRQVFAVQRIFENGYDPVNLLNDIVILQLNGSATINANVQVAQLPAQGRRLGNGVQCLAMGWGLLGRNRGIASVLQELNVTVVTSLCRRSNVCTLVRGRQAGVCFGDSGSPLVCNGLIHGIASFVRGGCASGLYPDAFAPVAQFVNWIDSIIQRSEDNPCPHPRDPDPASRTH
Experiment: Steady state inhibition constant for Human Leukocyte Elastase inhibition
Details: for kon: read-out: kon (M-1-s-1)

koff [s⁻¹] | kon [M⁻¹ s⁻¹] | Structure (SMILES)
0.000163 | 685 | COC(=O)CSc1nc2sc(C)c(C)c2c(=O)o1 [(5,6-Dimethyl-4-oxo-4H-thieno[2,3-d][1,3]oxazin-2-ylsulfanyl)-acetic acid methyl ester]
0.00156 | 272000 | CSc1nc2sc3c(c2c(=O)o1)CCCC3 [2-Methylsulfanyl-5,6,7,8-tetrahydro-benzo[4,5]thieno[2,3-d][1,3]oxazin-4-one]
8.5e-05 | 1130 | Cc1sc2nc(NC(C)C)oc(=O)c2c1C [2-Isopropylamino-5,6-dimethyl-thieno[2,3-d][1,3]oxazin-4-one]
